From ChEMBL document CHEMBL3885861, “Open TG-GATES”

Organism: Rattus norvegicus
Experiment: Open TG-GATES - Regimen: Single
Type: toxicity, organism-based, Sprague-Dawley
Set-up: regimen Single, gender Male, age 6 weeks
Settings: in vivo, po, 1000 mg/kg, route gavage, dose level High; for APTT / Bas / Eos / Fbg / Hb / Ht / Lym / MCH / MCHC / MCV / Mono / Neu / PT / Plat / RBC / Ret / WBC: tissue Blood; for KIDNEY_L / KIDNEY_R / KIDNEY_TOTAL: tissue Kidney; for LIVER: tissue Liver; for A/G / ALP / ALT / AST / BUN / CRE / Ca / Cl / DBIL / GLC / IP / K / LDH / Na / PL / RALB / TBIL / TC / TG / TP / gamma-GTP: tissue Plasma

## C[C@H]1O[C@H](O[C@H]2[C@H](O)[C@@H](O)[C@@H](O[C@H]3[C@H](O)[C@@H](O)C(O)O[C@@H]3CO)O[C@@H]2CO)[C@H](O)[C@@H](O)[C@@H]1N[C@H]1C=C(CO)[C@@H](O)[C@H](O)[C@H]1O (some centres not stated) [ACARBOSE]
3 h
  TERMINAL_BW: 197.2 g
  APTT: 17.5 s
  Bas: 0%
  Eos: 1%
  Fbg: 289.2 mg/dL
  Hb: 13.7 g/dL
  Ht: 42%
  Lym: 82.4%
  MCH: 20.7 pg
  MCHC: 32.7%
  MCV: 63.3 fL
  Mono: 2.2%
  Neu: 13.8%
  PT: 13.2 s
  Plat: 116 x10_4/uL
  RBC: 664 x10_4/ul
  Ret: 8%
  WBC: 88.8 x10_2/uL
  KIDNEY_L: 0.9 g
  KIDNEY_R: 0.9 g
  KIDNEY_TOTAL: 1.7 g
  LIVER: 8.2 g
  A/G: 0.9
  ALP: 1484.6 IU/L
  ALT: 38 IU/L
  AST: 73.6 IU/L
  BUN: 10.6 mg/dL
  CRE: 0.2 mg/dL
  Ca: 11 mg/dL
  Cl: 104.4 meq/L
  DBIL: 0.004 mg/dL
  GLC: 166.2 mg/dL
  IP: 10 mg/dL
  K: 4 meq/L
  LDH: 62.6 IU/L
  Na: 141.4 meq/L
  PL: 131.4 mg/dL
  RALB: 2.5 g/dL
  TBIL: 0.054 mg/dL
  TC: 71.4 mg/dL
  TG: 45.2 mg/dL
  TP: 5.2 g/dL
  gamma-GTP: 1 IU/L
6 h
  TERMINAL_BW: 198.5 g
  APTT: 17.1 s
  Bas: 0%
  Eos: 1%
  Fbg: 266.4 mg/dL
  Hb: 13.3 g/dL
  Ht: 41.1%
  Lym: 74.8%
  MCH: 20.9 pg
  MCHC: 32.5%
  MCV: 64.2 fL
  Mono: 3%
  Neu: 20.2%
  PT: 13.5 s
  Plat: 118.8 x10_4/uL
  RBC: 640.4 x10_4/ul
  Ret: 8.2%
  WBC: 81.7 x10_2/uL
  KIDNEY_L: 0.9 g
  KIDNEY_R: 0.9 g
  KIDNEY_TOTAL: 1.8 g
  LIVER: 7.8 g
  A/G: 0.9
  ALP: 1359.2 IU/L
  ALT: 34.4 IU/L
  AST: 73.8 IU/L
  BUN: 9.4 mg/dL
  CRE: 0.2 mg/dL
  Ca: 10.6 mg/dL
  Cl: 104 meq/L
  DBIL: 0.004 mg/dL
  GLC: 167.2 mg/dL
  IP: 10 mg/dL
  K: 4 meq/L
  LDH: 61.6 IU/L
  Na: 140.4 meq/L
  PL: 128.8 mg/dL
  RALB: 2.4 g/dL
  TBIL: 0.066 mg/dL
  TC: 72.2 mg/dL
  TG: 35.4 mg/dL
  TP: 5 g/dL
  gamma-GTP: 1 IU/L
9 h
  TERMINAL_BW: 195.6 g
  APTT: 17 s
  Bas: 0.4%
  Eos: 0.8%
  Fbg: 306 mg/dL
  Hb: 13.6 g/dL
  Ht: 41.9%
  Lym: 78.2%
  MCH: 20.8 pg
  MCHC: 32.3%
  MCV: 64.2 fL
  Mono: 2.2%
  Neu: 18%
  PT: 13.4 s
  Plat: 117.8 x10_4/uL
  RBC: 654.4 x10_4/ul
  Ret: 7.9%
  WBC: 87.1 x10_2/uL
  KIDNEY_L: 0.9 g
  KIDNEY_R: 0.9 g
  KIDNEY_TOTAL: 1.8 g
  LIVER: 7.4 g
  A/G: 0.9
  ALP: 1457.4 IU/L
  ALT: 36 IU/L
  AST: 75.8 IU/L
  BUN: 8.8 mg/dL
  CRE: 0.2 mg/dL
  Ca: 10.6 mg/dL
  Cl: 105.2 meq/L
  DBIL: 0.002 mg/dL
  GLC: 168.8 mg/dL
  IP: 10.1 mg/dL
  K: 3.8 meq/L
  LDH: 67.2 IU/L
  Na: 142 meq/L
  PL: 119 mg/dL
  RALB: 2.5 g/dL
  TBIL: 0.064 mg/dL
  TC: 70.8 mg/dL
  TG: 24 mg/dL
  TP: 5.3 g/dL
  gamma-GTP: 1.2 IU/L
24 h
  TERMINAL_BW: 212.7 g
  APTT: 18.7 s
  Bas: 0%
  Eos: 1.2%
  Fbg: 291.4 mg/dL
  Hb: 13.4 g/dL
  Ht: 40.9%
  Lym: 72.2%
  MCH: 20.9 pg
  MCHC: 32.6%
  MCV: 64.1 fL
  Mono: 2.8%
  Neu: 23%
  PT: 13 s
  Plat: 118.2 x10_4/uL
  RBC: 638.4 x10_4/ul
  Ret: 7.9%
  WBC: 103.5 x10_2/uL
  KIDNEY_L: 0.9 g
  KIDNEY_R: 0.9 g
  KIDNEY_TOTAL: 1.8 g
  LIVER: 9.8 g
  A/G: 0.9
  ALP: 1691 IU/L
  ALT: 44.4 IU/L
  AST: 75.4 IU/L
  BUN: 14.6 mg/dL
  CRE: 0.2 mg/dL
  Ca: 10.7 mg/dL
  Cl: 105.6 meq/L
  DBIL: 0.01 mg/dL
  GLC: 173.4 mg/dL
  IP: 7.9 mg/dL
  K: 4 meq/L
  LDH: 66.2 IU/L
  Na: 142.8 meq/L
  PL: 132.6 mg/dL
  RALB: 2.6 g/dL
  TBIL: 0.06 mg/dL
  TC: 72.2 mg/dL
  TG: 70.8 mg/dL
  TP: 5.5 g/dL
  gamma-GTP: 1 IU/L
